# Laboratory results published in patent US20090074815A1, “Immunomodulator Compounds as Vaccine Enhancers” (SCICLONE PHARMACEUTICALS, INC., priority 2005, published 2009).
# Like-named read-outs stand apart in the source and are kept apart here.
# Key:
# [1] = tested on: bone marrow cells; assay: Expression of Thy1 marker by bone marrow cells (flow cytometry) after SCV-07 treatment; format: in vivo, mice
# Excerpt: Materials and Methods: Eighteen (18) to twenty (20) gram (g) male mice, purchased from the Rappolovo Animal Facility, Russia, were used in the studies described below. C57BL/6 (B6) mice were used to evaluate the effect of SCV-07 in non-immunized mice. CBAxC57BL/6 (F1) mice were used for studies of the effects of SCV-07 on the antigen-specific immune response. Mice were kept under the standard animal facility conditions and were provided with a standard diet and water ad libitum. Each treatment group included 4-5 mice. […] A suspension containing filling agents alone, which corresponded to the maximum amount of filling agents in the doses of SCV-07 administered to experimental animals, was used a control. Thigh bones were removed from treated mice under aseptic conditions, and the medullary cavities were […] washed with PBS. Fragments of the bone marrow were minced by passing the tissue through a syringe needle. The resulting cell suspension was filtered through a double gauze layer and washed in PBS. After erythrocytes were lysed, the cells were counted and transferred to flat bottom culture plates. Due to an almost complete lack of spontaneous proliferation, the absolute values of proliferation, which were expressed as counts per minute (CPM), were determined and the Con A-induced proliferation of thymic cells from animals of different groups were compared. Analysis by Flow Cytometry: […] Immunomodulatory Activity of SCV-07 After Oral Administration: Thy1-positive lymphocytes, the precursors of T-cells in the bone marrow, increased in a dose-dependent manner in mice after treatment with SCV-07 per os. These increases were analogous to those observed in mice which received SCV-07 i.p (Table 2).
# [2] = tested on: IL-10 production by OvA-stimulated splenocytes; assay: OvA-stimulated production of IL-10 by splenocytes of OvA-immunized mice; conditions: for activity at 0.0001 mg/kg / activity at 0.001 mg/kg / activity at 0.01 mg/kg: Mus musculus, Splenocyte, po; for activity at 0.001 mg/kg: 1.0 μg/kg per os; for activity at 0.01 mg/kg: 10.0 μg/kg per os; for Production of IL-10 by splenocytes / Production of IL-10 by splenocytes, % (% of control): OvA/Alum
# Method: The OvA was administered subcutaneously to the crest in a volume of 200 μl. Mice were immunized on day 1 with OvA in complete Freund's adjuvant (CFA; Sigma) and on day 15 with the antigen in incomplete Freund's adjuvant (IFA; Sigma). The immune response was analyzed on day 29. Mice were also immunized with 10 μg/mouse of OvA using Alum as an adjuvant.
# Thymuses and spleens from mice of each treatment group were pooled, and then minced with scissors. The minced tissues were suspended in sterile PBS to form cell suspensions, filtered through a double gauze layer and centrifuged. Cells were washed twice with PBS, re-suspended in RPMI-1640 (Sigma) with 2.0 mM of L-glutamine, 50 μM of mercaptoethanol, and 10 μg/ml of gentamycin (complete medium); and cell counts were made. (The splenocyte suspension was washed with a 0.86% solution of NH4Cl to pre-lyse erthrocytes.)
# Assessment of Mitogen- and Antigen-Induced Production of Cytokines: Thymic cells (1×10^6/well) in complete medium with 2% FCS were stimulated with ConA (0, 1, and 2 μg/ml). Splenocytes (1×10^6/well) in complete medium with 5% FCS were stimulated with ConA (0, 1, and 5 μg/ml) and with OvA (0-100 μg/ml). […] Supernatants from OvA-stimulated cultures were collected after 72 hours. Supernatants from both cultures were frozen, and kept at 20° C. Concentrations of IL-2, IL-4, IL-10, IL-12R40 and IFNγ in the supernatants were determined by solid-phase EIA with EIA Expansion Kits, available from BD Biosciences (formerly Pharmingen), in accordance with the manufacturer's instructions.
# [3] = read-out: Production of IL-10 by splenocytes, % (% of control), OvA/Alum, OvA 0 μg/ml
# [4] = read-out: Production of IL-10 by splenocytes, % (% of control), OvA/Alum, OvA 10 μg/ml
# [5] = read-out: Production of IL-10 by splenocytes, % (% of control), OvA/Alum, OvA 25 μg/ml
# [6] = read-out: Production of IL-10 by splenocytes, % (% of control), OvA/Alum, OvA 50 μg/ml
# [7] = read-out: Production of IL-10 by splenocytes, % (% of control), OvA/Alum, OvA 100 μg/ml
# [8] = read-out: Production of IL-10 by splenocytes, % (% of control), OvA/FA, OvA 0 μg/ml
# [9] = read-out: Production of IL-10 by splenocytes, % (% of control), OvA/FA, OvA 10 μg/ml
# [10] = read-out: Production of IL-10 by splenocytes, % (% of control), OvA/FA, OvA 25 μg/ml
# [11] = read-out: Production of IL-10 by splenocytes, % (% of control), OvA/FA, OvA 50 μg/ml
# [12] = read-out: Production of IL-10 by splenocytes, % (% of control), OvA/FA, OvA 100 μg/ml
compound,measurement,setting,value
"N[C@H](CCC(=O)N[C@@H](Cc1c[nH]c2ccccc12)C(=O)O)C(=O)O [SCV-07, γ-D-glutamyl-L-tryptophan]","Thy-1 positive cells, %",[1]; 0.1 μg/kg per os,12.9 ± 1.2%
same,"Thy-1 positive cells, %",[1]; 1.0 μg/kg i/p,15.4 ± 0.1%
same,"Thy-1 positive cells, %",[1]; 1.0 μg/kg per os,14.9 ± 1.3%
same,"Thy-1 positive cells, %",[1]; 10.0 μg/kg per os,16.0 ± 0.7%
same,"Thy-1 positive cells, %",[1]; 100.0 μg/kg per os,16.0 ± 1.2%
same,activity at 0.0001 mg/kg,"[2]; read-out: Production of IL-10 by splenocytes, % (% of control), OvA/Alum, 0.1 μg/kg per os, OvA 0 μg/ml",100%
same,activity at 0.0001 mg/kg,"[2]; read-out: Production of IL-10 by splenocytes, % (% of control), OvA/Alum, 0.1 μg/kg per os, OvA 10 μg/ml",118%
same,activity at 0.0001 mg/kg,"[2]; read-out: Production of IL-10 by splenocytes, % (% of control), OvA/Alum, 0.1 μg/kg per os, OvA 25 μg/ml",105%
same,activity at 0.0001 mg/kg,"[2]; read-out: Production of IL-10 by splenocytes, % (% of control), OvA/Alum, 0.1 μg/kg per os, OvA 50 μg/ml",132%
same,activity at 0.0001 mg/kg,"[2]; read-out: Production of IL-10 by splenocytes, % (% of control), OvA/Alum, 0.1 μg/kg per os, OvA 100 μg/ml",129%
same,activity at 0.001 mg/kg,[2]; [3],100%
same,activity at 0.001 mg/kg,[2]; [4],128%
same,activity at 0.001 mg/kg,[2]; [5],112%
same,activity at 0.001 mg/kg,[2]; [6],110%
same,activity at 0.001 mg/kg,[2]; [7],109%
same,activity at 0.01 mg/kg,[2]; [3],100%
same,activity at 0.01 mg/kg,[2]; [4],138%
same,activity at 0.01 mg/kg,[2]; [5],156%
same,activity at 0.01 mg/kg,[2]; [6],197%
same,activity at 0.01 mg/kg,[2]; [7],218%
same,activity at 0.0001 mg/kg,"[2]; read-out: Production of IL-10 by splenocytes, % (% of control), OvA/FA, 0.1 μg/kg per os, OvA 0 μg/ml",100%
same,activity at 0.0001 mg/kg,"[2]; read-out: Production of IL-10 by splenocytes, % (% of control), OvA/FA, 0.1 μg/kg per os, OvA 10 μg/ml",136%
same,activity at 0.0001 mg/kg,"[2]; read-out: Production of IL-10 by splenocytes, % (% of control), OvA/FA, 0.1 μg/kg per os, OvA 25 μg/ml",210%
same,activity at 0.0001 mg/kg,"[2]; read-out: Production of IL-10 by splenocytes, % (% of control), OvA/FA, 0.1 μg/kg per os, OvA 50 μg/ml",248%
same,activity at 0.0001 mg/kg,"[2]; read-out: Production of IL-10 by splenocytes, % (% of control), OvA/FA, 0.1 μg/kg per os, OvA 100 μg/ml",270%
same,activity at 0.001 mg/kg,[2]; [8],100%
same,activity at 0.001 mg/kg,[2]; [9],234%
same,activity at 0.001 mg/kg,[2]; [10],241%
same,activity at 0.001 mg/kg,[2]; [11],275%
same,activity at 0.001 mg/kg,[2]; [12],317%
same,activity at 0.01 mg/kg,[2]; [8],100%
same,activity at 0.01 mg/kg,[2]; [9],133%
same,activity at 0.01 mg/kg,[2]; [10],174%
same,activity at 0.01 mg/kg,[2]; [11],216%
same,activity at 0.01 mg/kg,[2]; [12],250%
same,Production of IL-10 by splenocytes,"[2]; 0.1 μg/kg i/p, OvA 0 μg/ml",2177.8 pg/mL
same,Production of IL-10 by splenocytes,"[2]; 0.1 μg/kg i/p, OvA 10 μg/ml",1762.5 pg/mL
same,"Production of IL-10 by splenocytes, % (% of control)","[2]; 0.1 μg/kg i/p, OvA 10 μg/ml",80.9%
same,Production of IL-10 by splenocytes,"[2]; 0.1 μg/kg i/p, OvA 25 μg/ml",1946.1 pg/mL
same,"Production of IL-10 by splenocytes, % (% of control)","[2]; 0.1 μg/kg i/p, OvA 25 μg/ml",89.4%
same,Production of IL-10 by splenocytes,"[2]; 0.1 μg/kg i/p, OvA 50 μg/ml",1851.3 pg/mL
same,"Production of IL-10 by splenocytes, % (% of control)","[2]; 0.1 μg/kg i/p, OvA 50 μg/ml",85.0%
same,Production of IL-10 by splenocytes,"[2]; 0.1 μg/kg i/p, OvA 100 μg/ml",2189.5 pg/mL
same,"Production of IL-10 by splenocytes, % (% of control)","[2]; 0.1 μg/kg i/p, OvA 100 μg/ml",100.5%
same,Production of IL-10 by splenocytes,"[2]; 0.1 μg/kg per os, OvA 0 μg/ml",1351.1 pg/mL
same,Production of IL-10 by splenocytes,"[2]; 0.1 μg/kg per os, OvA 10 μg/ml",1587.9 pg/mL
same,Production of IL-10 by splenocytes,"[2]; 0.1 μg/kg per os, OvA 25 μg/ml",1419.5 pg/mL
same,Production of IL-10 by splenocytes,"[2]; 0.1 μg/kg per os, OvA 50 μg/ml",1783.6 pg/mL
same,Production of IL-10 by splenocytes,"[2]; 0.1 μg/kg per os, OvA 100 μg/ml",1741.5 pg/mL
same,Production of IL-10 by splenocytes,"[2]; 1.0 μg/kg i/p, OvA 0 μg/ml",2035.7 pg/mL
